The record followed here is US20090054376A1, “BENZOFURAN DERIVATIVES WITH THERAPEUTIC ACTIVITIES” (Pharmos Corporation, priority 2005, published 2009).

The subject of one data set is COX-2. Description: Gene expression in LPS activated RAW 264.7 macrophages, COX-2. The data set is classed as cell-based, mouse. To be noted: RAW 264.7, 10 μM, LPS 1 μg/ml, RNA 3 hrs after activation, vs vehicle treated activated cells. Here is the method:
(§1) RAW 264.7 macrophages, a mouse cell line (ATCC # TIB 71), were grown in Dulbecco's modified Eagle's medium (DMEM) with 4 mM L-glutamine adjusted to contain 1.5 g/L sodium bicarbonate, 4.5 g/L glucose, and 10% heat inactivated fetal bovine serum. Cells were grown in tissue culture flasks and seeded at appropriate density into 6 wells tissue culture plates. Four million Raw cells in half a milliliter were stimulated with 1 μg/ml LPS E. coli 055:B5 (DIFCO Laboratories). The mouse macrophages were pre-treated for one hour with controls or 10 μM of test compounds, and later on activated with LPS. RNA samples were extracted from the cells 3 hrs after activation and gene expression levels were analyzed by real-time RT-PCR. In parallel, supernatants were collected and secretion of inflammatory mediators was analyzed using ELISA techniques according to the instructions of the kit manufacturer.
(§2) Total RNA is prepared using SV total RNA isolation system (Promega). The cells were homogenized in lysis buffer. The lysates were transferred to an RNA isolation column, treated with DNAse, washed and eluted according to kit instructions. RNA concentrations were determined using GeneQuant II (Pharmacia-Amersham). Complementary DNA (cDNA) was synthesized from total RNA using […] II reverse transcriptase (Life Technologies). 2 μg of total RNA were combined with an oligo (dT)15 primer, 0.5 mM dNTP mix, 8 units of reverse transcriptase and other reaction components up to a final volume of 20 μl, according to the kit instructions. The reaction mixture was incubated at 42° C. for 45 min and inactivated at 70° C. for 15 minutes. Quantitative real-time RT-PCR included 1 μl of the cDNA, 300 nM of the appropriate forward and reverse primers (according to the gene monitored) and 7.5 μl of the reaction mix containing buffer, nucleotides, Taq polymerase and SYBER green (SYBER Green master mix, Applied Biosystems), in a total reaction volume of 15 μl. Gene amplification was obtained using the GeneAmp 5700 sequence detection system (Applied Biosystems). Amplification included one stage of 10 minutes at 95° C. followed by 40 cycles of a 2-steps loop: 20 seconds at 95° C., and 1 minute at 60° C. During each annealing step, the amount of the amplified product was measured by the fluorescence of the double strand DNA binding dye, SYBER Green. The cycle of threshold (CT), representing the PCR cycle at which an increase in fluorescence above a baseline signal can be first detected, was determined for each product. A delay of one PCR cycle in the CT is translated into a two-fold decrease in starting template molecules and vice versa. The changes in the CT of the specific gene product were normalized to the changes in the CT of housekeeping cyclophilin or GAPDH as reference genes. Results were expressed as fold increase of gene expression in treated or untreated activated cells above the resting cells, after normalization to cyclophilin or GAPDH. Cells were also tested for viability to confirm that any effect on gene expression was indeed due to modulation of transcription of a specific target and not to cytoxicity.
(§3) Results were further expressed as percent inhibition of gene expression in compound treated activated cells over vehicle “treated” activated cells. Since the modulation of IL-10 and TNF-α gene expression by the compounds of the invention is relatively minor, it is not reported. […] Inhibition above 50% was considered significant.

The next data set deals with MCP-1. Description: Gene expression in LPS activated RAW 264.7 macrophages, MCP-1. The data set is classed as cell-based, mouse. To be noted: RAW 264.7, 10 μM, LPS 1 μg/ml, RNA 3 hrs after activation, vs vehicle treated activated cells. The protocol: as §1, §2, §3
Data set [1] relates to CB1 related cannabimimetic activity. In words: Safety: body temperature, catalepsy, spontaneous locomotor activity, elevated plus maze, sensitivity to touch. The conditions noted are these: 2 mg/kg i.v. The data set is classed as in vivo, ICR male mice. The protocol:
In the present study, impact of compounds of the invention on the central nervous system was measured by monitoring the body temperature, catalepsy and spontaneous locomotor activity of rodents. These activities are part of the Tetrad assays which are indicative, if all parameters are affected, of CB1 mediated activity. In addition, lack of CNS psychomimetic effect was assessed in the elevated plus maze model. Finally, sensitivity to touch was determined in order to evaluate peripheral CB1 related activity.
ICR male mice (average body weight 25 g, Harlan, Israel) were administered the compounds of the invention i.v. at a dose of 2 mg/kg and at a volume dose of 5 ml/kg. The psychoactive cannabinoid HU-210 was used as positive control at the 100-fold lower dose of 0.02 mg/kg i.v. The following measurements were made starting 15 minutes after compound administration. All tests were completed for each animal within approximately 10 minutes. Rectal temperature was monitored using a thermistor probe (YSI model 400, USA). Spontaneous locomotion was assessed using the open field methodology. The number of squares crossed by the animals were recorded and analyzed during a period of three minutes. At the end of the open field test, the animals were tested for catalepsy symptoms. This was carried out by gently forcing the animal to stand on its hind paws when its front paws are holding on an elevated beam. The time for the animal to step down of the beam was measured in seconds. A normal animal withdraws the beam immediately whereas cataleptic animal tend to stay on the beam. The longer the animal stays leaning on the beam, the more cataleptic the animal is. The behavior of the animals was then assessed in the elevated plus maze. The elevated plus maze consists of two open arms and two arms that are enclosed by high walls (arms 30×10 cm, wall height 20 cm). The elevated plus maze is usually elevated 80 cm above the floor. The mouse is placed on the maze head facing an open arm, and the time spent in the different compartments of the maze (open arms, closed arms and central area) are measured for the next 5 minutes. Results are expressed as percent of the time spent in the open arms, normal animals preferring to stay in the closed arms of the maze. Finally, animals were gently touched by an observer blinded for the treatment group and their sensitivity scored according to the following scale: 0 not sensitive, 1 sensitive and 2 highly sensitive. Results are expressed as average±SEM. At the end of the study, the animals were euthanized.

With `CCCCCCC(C)(C)c1cc(O)c2c(c1)OC1C(O)CCCCC21` (stereo not drawn) [Compound C7S-2, 2-(1,1-dimethylheptyl)-5,6,7,8,9,9a-hexahydro-4bH-10-oxa-benzo[α]azulen-4,9-diol], the “Percent inhibition of gene expression, COX-2” value (from here on “Percent inhibition … COX-2”) in the data set on COX-2 was 26%. In addition, in the data set on MCP-1, the “Percent inhibition of gene expression, MCP-1” value (from here on “Percent inhibition … MCP-1”) is “NO (NO indicates that the compound tested did not significantly affect the transcription of the gene assessed and that its activity is comparable to vehicle, within ±20% from this control)”.
For `CCCCC(C)(C)c1cc(O)c2c(c1)OC1(C)CCCC21` (stereo not drawn) [Compound C5S-1, 6-(1,1-dimethylpentyl)-8a-methyl-2,3,3a,8a-tetrahydro-1H-8-oxa-cyclopenta[α]inden-4-ol], the “Percent inhibition … COX-2” value in the data set with COX-2 is on record as 29%. For the same compound, the “Percent inhibition … MCP-1” value in the data set with MCP-1 is “NO (NO indicates that the compound tested did not significantly affect the transcription of the gene assessed and that its activity is comparable to vehicle, within ±20% from this control)”. For the same compound, in data set [1], the “adverse cannabimimetic activities in any of the parameters monitored” value (from here on “adverse cannabimimetic activities in any”) is recorded as “None”.
Turning to `CCCCC(C)(C)c1cc(O)c2c(c1)OC1C2CCC(C)(C)C1O` (centres unmarked) [Compound C6S-7, 3-(1,1-dimethylpentyl)-7,7-dimethyl-5a,6,7,8,9,9a-hexahydro-dibenzofuran-1,6-diol], the “adverse cannabimimetic activities in any” value in data set [1] is “None”.
As to `CCCCC(C)(C)c1cc(O)c2c(c1)OC1CCCCC21` (centres unmarked) [Compound C6S-3, 3-(1,1-dimethylpentyl)-5a,6,7,8,9,9a-hexahydro-dibenzofuran-1-ol], in the data set with COX-2, the “Percent inhibition … COX-2” value is 65%. The “Percent inhibition … MCP-1” value in the data set on MCP-1 worked out at 55%. In addition, the “adverse cannabimimetic activities in any” value in data set [1] is on record as “None”. For the same compound, the “decrease of number of squares crossed” value in data set [1] (non-significant) amounted to 13%. For the same compound, in data set [1] (period of three minutes, vehicle 75.63±6.24), the “number of squares crossed (spontaneous locomotor activity)” value stood at 65.80±7.04.
`CCCCCCC(C)(C)c1cc(O)c2c(c1)OC1(C)CCCC21` (stereo not drawn) [Compound C5S-2, 6-(1,1-dimethylheptyl)-8a-methyl-2,3,3a,8a-tetrahydro-1H-8-oxa-cyclo-penta[α]inden-4-ol]: in the data set on COX-2, the “Percent inhibition … COX-2” value was “NO (NO indicates that the compound tested did not significantly affect the transcription of the gene assessed and that its activity is comparable to vehicle, within ±20% from this control)”. Further, the “Percent inhibition … MCP-1” value in the data set on MCP-1 is “NO (NO indicates that the compound tested did not significantly affect the transcription of the gene assessed and that its activity is comparable to vehicle, within ±20% from this control)”. Also, in data set [1], the “adverse cannabimimetic activities in any” value is “None”.
For `CCCCCCC(C)(C)c1cc(O)c2c(c1)OC1C=CCCC21` (centres unmarked) [Compound C6S-2, 3-(1,1-Dimethylheptyl)-5a,8,9,9a-tetrahydro-dibenzofuran-1-ol], in the data set on COX-2, the “Percent inhibition … COX-2” value stood at 61%. Further, the “Percent inhibition … MCP-1” value in the data set with MCP-1 is 44%. Moreover, in data set [1], the “adverse cannabimimetic activities in any” value is on record as “None”.
Regarding `CCCCCCC(C)(C)c1cc(O)c2c3c(oc2c1)C(=O)CCC3(C)C` [Compound C6M-9, 7-(1,1-Dimethylheptyl)-9-hydroxy-1,1-dimethyl-2,3-dihydro-1H-dibenzofuran-4-one], in the data set with COX-2, the “Percent inhibition … COX-2” value worked out at 50%. Moreover, the “Percent inhibition … MCP-1” value in the data set with MCP-1 worked out at 37%. Besides, in data set [1], the “adverse cannabimimetic activities in any” value is “None”.
